According to patent US8710017B2, “Human and mouse targeting peptides identified by phage display” (priority 2000, dated 2014):
“Also recorded” adds a separate entry of the source. Ends that are not written are not given here. Peptide text beside a SMILES is read from it. * marks the point of attachment. Cbz = O=C(OCc1ccccc1)*; CH2F = FC*

How the values were obtained:
HUVEC = experiment: Apoptosis by chromatin fragmentation (agarose gel) in HUVEC; assay type: cell-based, human
Method: 10^6 HUVEC were treated with 15 μM of VISY antennapedia (penetratin) chimera or 15 μM of antennapedia peptide (pentratin) alone for 2-4 hours and chromatin fragmentation was analyzed by electrophoresis in an agarose gel.

placenta [1] = experiment: Effect of placental targeting peptide conjugates on fetal development in pregnant mice; assay type: in vivo, mouse; settings: for effect on pregnancy: FITC conjugated, lower dosages (450 μg total); for effect on fetal development: protein and phage conjugated, higher dosages (800 to 1000 μg protein or 4.5×10^10 phage)
Description: The CARAC peptide (SEQ ID NO:46), an adipose targeting peptide (FE, TREVHRS, SEQ ID NO:47) or fd-tet phage were used as non-placental targeting controls.

APA (SK-RC-49/APA cells) [2] = molecular target: T1, APA (SK-RC-49/APA cells) (Homo sapiens, UniProt Q07075); experiment: Cell panning of CX3CX3CX3C phage library on SK-RC-49/APA cells (insert frequency); assay type: cell-based; settings: share of 18 randomly selected phage inserts, round 2
T1 construct: The renal carcinoma cell line SK-RC-49 was transfected with an expression vector encoding full-length APA cDNA; expressed in transfected cells; host or cells: SK-RC-49 renal carcinoma cells, stably transfected (G418)
Method: A CX3CX3CX3C(C, cysteine; X, any amino acid) library was prepared (Rajotte et al., 1998). […] Cells were detached by incubation with 2.5 mM EDTA in PBS, washed once in binding medium (DMEM high glucose supplemented with 20 mM HEPES and 2% FCS), and resuspended in the same medium at a concentration of 2×10^6 cells/ml. 10^10 TU of phage were added to 500 μl of the cell suspension, and the mixture was incubated overnight (first round) or for 2 h (successive rounds) at 4° C. with gentle rotation. Cells were washed five times in binding medium at room temperature and resuspended in 100 μl of the same medium. Phage were rescued by adding 1 ml of exponentially growing K91Kan Escherichia coli bacteria and incubating the mixture for 1 h at room temperature. Bacteria were diluted in 10 ml of LB medium supplemented with 0.2 μg/ml tetracycline and incubated for another 20 min at room temperature. Serial dilutions were plated on LB plates containing 40 μg/ml tetracycline, and plates were incubated at 37° C. overnight before colonies were counted.
The CX3CX3CX3C phage library (10^10 transducing units [TU]) was preadsorbed on parental SK-RC-49 cells to decrease nonspecific binding. […] SK-RC-49/APA-bound phage were amplified and used for two consecutive rounds of selection.

APA (SK-RC-49/APA cells) [3] = molecular target: T1, APA (SK-RC-49/APA cells); experiment: Phage binding specificity assay on SK-RC-49/APA cells; assay type: cell-based; settings: input 10^9 TU, not shown
Method: The cell binding assay was performed with an input of 10^9 TU as described for the cell panning. The specificity was confirmed by adding […] (SEQ ID NO:123) peptide to the binding medium in increasing concentrations. For phage binding on immunocaptured APA, wells were blocked for 1 h at room temperature with PBS/3% BSA and incubated with 10^9 TU for 1 h at room temperature in 50 μl PBS/3% BSA. After eight washes in PBS/1% BSA/0.01% Tween-20 and two washes in PBS, phage were rescued by adding 200 μl of exponentially growing K91Kan E. coli. Each experiment was repeated at least three times.

adipose tissue = experiment: Validation of adipose homing phage by in vivo homing; parameters: species or system mouse; settings: FIG. 2
Method: FIG. 2. Validation of adipose homing peptides. Phage bearing targeting peptides identified in Example 4 were injected into pregnant mice and their recovery from adipose tissue was compared to control fd-tet phage without targeting sequences.
The fat homing clones selected were: FA—KGGRAKD (SEQ ID NO:53), FC—RGEVLWS (SEQ ID NO:54), FE—TREVHRS (SEQ ID NO:47) and FX—VMGSVTG (SEQ ID NO:52).

placenta [4] = experiment: Validation of placenta homing phage: recovery from placenta of pregnant mice; assay type: in vivo, mouse; settings: FIG. 1
Description: FIG. 1. Validation of placenta homing phage. […] The placenta homing phage clones were: […] NO:43). The placenta homing peptides were validated in vivo by injection into pregnant mice and recovery from the placenta. […] The phage clones are identified as: […] NO:43).

mouse placenta = experiment: In vivo biopanning for placenta homing phage with post-clearing (clone frequency per round); settings: for frequency of phage clone in round III: round III of in vivo biopanning in pregnant mice; for frequency of phage clone in round IV: post-clearing in non-pregnant mouse
Method: Peptides homing to the mouse placenta were identified by a post-clearing protocol using a phage display library. A first round of biopanning was performed on pregnant mice. Samples of placenta were removed and phage rescued according to the standard protocols described above, with one modification. In the typical bipanning protocol, thousands of phage may be recovered from a single organ, tissue or cell type. Typically, between 200 and 300 individual colonies were selected from plated phage and these were amplified and pooled to form the phage display library for the second or third rounds of biopanning. In this example, all phage rescued from the first round of biopanning were amplified in bulk on solid medium and then pooled to form the phage display library for the second round of biopanning. That is, there was no restriction of the rescued phage from the first round of biopanning. This in vivo biopanning without restriction was performed for three rounds (rounds I-III), then a post-clearing procedure was used.
In the post-clearing protocol (round IV), phage were administered to a non-pregnant mouse. Phage that bound to tissues other than placenta were absorbed from the circulation. Remaining phage were recovered from the plasma of the non-pregnant mouse. This protocol was designed to isolate phage that bound to placenta but not to other mouse organs, tissues or cell types. The following placenta targeting peptides were identified, along with their frequencies. A search of the GenBank database disclosed that none of the SEQ ID NO's listed below was 100% homologous with any known peptide sequence.

GST-β5 integrin = molecular target: T2, GST-β5 integrin (Homo sapiens, UniProt P18084); experiment: Annexin V binding to GST-β5 cytoplasmic domain (ELISA), competition with VISY peptide; settings: FIG. 20A
T2 construct: Plates were coated with GST fusion proteins of the cytoplasmic domains of various integrins and Annexin V was added to the plates
T2 sequence (P18084 743-799 limits assumed): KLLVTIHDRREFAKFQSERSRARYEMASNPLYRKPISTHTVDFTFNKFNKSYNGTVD
Method: Competitive binding assays were performed to examine the binding of Annexin V to β5 integrin and the effect of the VISY peptide. Plates were coated with GST fusion proteins of the cytoplasmic domains of various integrins and Annexin V was added to the plates. Binding of Annexin V was determined using anti-Annexin V antibodies. […] Calcium was used because Annexin V activity has been reported to be modulated by calcium. Binding of Annexin V to GST-β5 was blocked by addition of the VISY peptide (FIG. 20A).
A reciprocal study was performed, using Annexin V to coat plates and adding GST fusion proteins of integrin cytoplasmic domains. Binding was assessed using anti-GST fusion protein antibodies. […] In some studies, calcium ion appeared to interfere with the binding interaction between GST-β5 and Annexin V, with decreased binding observed in the presence of calcium (not shown).

[5] = FITC conjugates-I, 1 mouse iv (predominantly) or ip ~every other day, day 1-day 18, 9 times, Total 450 μg)
[6] = FITC conjugates-II, 1 mouse sc (predominantly) or iv ~every other day, day 4-day 17, 10 times, Total 1M (~1 mg)

T1 sequence (Q07075 whole entry): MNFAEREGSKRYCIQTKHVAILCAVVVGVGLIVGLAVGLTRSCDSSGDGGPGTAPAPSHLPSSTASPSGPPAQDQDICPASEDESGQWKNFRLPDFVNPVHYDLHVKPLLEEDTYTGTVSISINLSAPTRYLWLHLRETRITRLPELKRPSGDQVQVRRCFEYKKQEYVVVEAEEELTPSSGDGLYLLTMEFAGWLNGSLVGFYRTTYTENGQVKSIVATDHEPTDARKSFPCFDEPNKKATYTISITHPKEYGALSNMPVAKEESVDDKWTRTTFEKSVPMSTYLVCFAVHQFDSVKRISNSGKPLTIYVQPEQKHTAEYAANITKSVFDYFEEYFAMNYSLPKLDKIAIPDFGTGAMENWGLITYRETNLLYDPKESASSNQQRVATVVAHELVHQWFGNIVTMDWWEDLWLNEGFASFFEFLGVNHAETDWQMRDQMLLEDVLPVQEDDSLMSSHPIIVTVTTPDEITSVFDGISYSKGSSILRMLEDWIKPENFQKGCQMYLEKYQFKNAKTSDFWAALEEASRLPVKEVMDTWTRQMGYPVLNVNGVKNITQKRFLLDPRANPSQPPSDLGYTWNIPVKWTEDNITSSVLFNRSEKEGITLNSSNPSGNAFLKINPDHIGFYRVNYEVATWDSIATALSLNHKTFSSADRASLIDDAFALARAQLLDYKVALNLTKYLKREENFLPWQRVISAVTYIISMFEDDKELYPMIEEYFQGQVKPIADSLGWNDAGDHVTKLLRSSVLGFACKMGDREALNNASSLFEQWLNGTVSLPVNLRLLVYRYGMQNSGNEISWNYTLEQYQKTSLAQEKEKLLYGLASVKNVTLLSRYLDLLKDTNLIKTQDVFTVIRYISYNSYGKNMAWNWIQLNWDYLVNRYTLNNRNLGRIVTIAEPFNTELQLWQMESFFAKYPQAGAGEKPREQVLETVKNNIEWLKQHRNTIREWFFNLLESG

## COC(=O)C[C@H](NC(=O)[C@H](C)NC(=O)[C@@H](NC(=O)OCc1ccccc1)C(C)C)C(=O)CF [zVAD, reference compound] (Cbz-Val-Ala-Asp(OMe)-CH2F)
HUVEC; caspase inhibitor added at the same time as the VISY chimeric peptide
  inhibition of VISY chimeric peptide-induced apoptosis: up to 70%

## CARAC-FITC: CARAC peptide (SEQ ID NO:46) attached to FITC, non-placental targeting control (cysteine pairing not given here; also: attached to FITC, site not given here) [reference compound]
Placenta [1]; [5]
  Peptide Effect on Embryo: No effect
  Pregnancy Outcome: 18 d, 5 normal pups
Placenta [1]; [6]
  Peptide Effect on Embryo: Slight toxicity?
  Pregnancy Outcome: 20 d, 5 pups, 1-dead

## CAVACWADCQLGC
APA (SK-RC-49/APA cells) [2]
  Round 2 (%): 5%

## CGTGCAVECEVVC
APA (SK-RC-49/APA cells) [3]
  enrichment of phage binding on SK-RC-49/APA cells relative to SK-RC-49 parental cells: no selective binding
APA (SK-RC-49/APA cells) [2]
  Round 2 (%): 5%

## CSGLCTVQCLEGC
APA (SK-RC-49/APA cells) [2]
  Round 2 (%): 5%

## CSMMCLEGCDDWC
APA (SK-RC-49/APA cells) [2]
  Round 2 (%): 5%

## GST-PA: PA peptide (TPKTSVT) attached to GST (glutathion S-transferase)
Placenta [1]; GST conjugates-I, 1 mouse sc (predominantly) or iv ~every other day, day 4-day 17, 10 times, Total 800 μg
  Peptide Effect on Embryo: Pregnancy termination

## KGGRAKD [fat-targeting peptide, fat homing phage clone FA]
Adipose tissue
  homing to adipose tissue compared to control fd-tet phage: some elevation of homing to adipose tissue

## LGLRSVG [placenta targeting peptide, phage clone PE]
Placenta [4]
  placental homing of phage compared to control fd-tet phage: not substantially enriched in placenta
Mouse placenta
  frequency of phage clone in round III: < 1%
  frequency of phage clone in round IV: 5.3%

## PA-FITC: placenta homer PA peptide (TPKTSVT) attached to FITC (fluorescein isothiocyanate) (also: FITC conjugate, site not given here)
Placenta [1]; [5]
  Peptide Effect on Embryo: No effect
  Pregnancy Outcome: 19 d, 8 normal pups
Placenta [1]; [6]
  Peptide Effect on Embryo: Pregnancy termination
  Pregnancy Outcome: No fetuses inside

## PF-FITC: placenta homer PF peptide (YIRPFTL) attached to FITC (also: FITC conjugate, site not given here)
Placenta [1]; [5]
  Peptide Effect on Embryo: Development delay,; also recorded: toxicity
  Pregnancy Outcome: 21 d, 1 dead pup
Placenta [1]; [6]
  Peptide Effect on Embryo: Pregnancy termination
  Pregnancy Outcome: No fetuses inside

## RAPGGVR [placenta targeting peptide, phage clone PC]
Placenta [4]
  placental homing of phage compared to control fd-tet phage: substantially higher placental localization
Mouse placenta
  frequency of phage clone in round III: < 1%
  frequency of phage clone in round IV: 8.5%

## RGEVLWS [fat-targeting peptide, fat homing phage clone FC]
Adipose tissue
  homing to adipose tissue compared to control fd-tet phage: some elevation of homing to adipose tissue

## RMDGPVR [placenta targeting peptide]
Mouse placenta
  frequency of phage clone in round III: 3.1%
  frequency of phage clone in round IV: 8.5%

## TPKTSVT
Placenta [4]
  placental homing of phage compared to control fd-tet phage: more than an order of magnitude greater
Mouse placenta
  frequency of phage clone in round III: 7.4%
  frequency of phage clone in round IV: 8.5%

## TPKTSVT: placenta targeting peptide, tested displayed on phage clone PA
Placenta [1]
  effect on pregnancy: slight effect on pregnancy
  effect on fetal development: substantially interfered with fetal development

## TREVHRS [adipose targeting peptide, fat homing phage clone FE]
Adipose tissue
  homing to adipose tissue compared to control fd-tet phage: some elevation of homing to adipose tissue

## VGLHARA [placenta targeting peptide]
Mouse placenta
  frequency of phage clone in round III: 4.2%
  frequency of phage clone in round IV: 7.4%

## VMGSVTG [fat-targeting peptide, fat homing phage clone FX]
Adipose tissue
  homing to adipose tissue compared to control fd-tet phage: several orders of magnitude higher adipose localization

## VVISYSMPD
HUVEC; 15 μM, 2-4 hours, FIG. 21
  induction of apoptosis (chromatin fragmentation): Neither VISY or penetratin alone induced apoptosis
GST-β5 integrin
  effect on binding of Annexin V to GST-β5: blocked

## YIRPFTL [placenta targeting peptide, phage clone PF]
Placenta [4]
  placental homing of phage compared to control fd-tet phage: not substantially enriched in placenta
Mouse placenta
  frequency of phage clone in round III: 2.1%
  frequency of phage clone in round IV: 5.3%

## YIRPFTL: placenta targeting peptide, phage clone PF
Placenta [1]
  effect on pregnancy: slight effect on pregnancy
  effect on fetal development: substantially interfered with fetal development
